# According to ChEMBL document CHEMBL1150026, “Synthesis of 2,3-dideoxy-2,3-didehydronucleoside analogues as potential anti HIV agents” (Bioorg Med Chem Lett, 1992):
# Active and inactive are the calls of the source. The rule behind the calls is not given here.
# Tested on: C8166
# Assay: Compound was tested for antiviral activity against HIV C 8166 cells at a concentration of 5-50 uM; NS - No significant activity
# Assay type: functional, cell-based
# Conditions: Homo sapiens
row,Structure (SMILES),Activity
1,COC(=O)C(C(=O)OC)=C1NC(=O)N(C2C=CC(CO)O2)C=C1C (stereo not drawn),inactive
2,COc1nc(=O)n(C2C=CC(CO)O2)cc1C (stereo not drawn),inactive
3,CCSc1nc(=O)n(C2C=CC(CO)O2)cc1C (stereo not drawn),inactive
